For one experiment, the target named is Endonuclease IV (Escherichia coli, UniProt P0A6C1). The note with it: from IC50 for APE1 and EndoIV.
The next experiment has as its target T1, APE1 (Homo sapiens, UniProt P27695).
T1 construct: made in house
The experiment in a line: in-house high-throughput in vitro biochemical assay for APE1 endonuclease activity (fluorescence-based).

Like-named read-outs stand apart in the source and are kept apart here.

T1 sequence (P27695 whole entry): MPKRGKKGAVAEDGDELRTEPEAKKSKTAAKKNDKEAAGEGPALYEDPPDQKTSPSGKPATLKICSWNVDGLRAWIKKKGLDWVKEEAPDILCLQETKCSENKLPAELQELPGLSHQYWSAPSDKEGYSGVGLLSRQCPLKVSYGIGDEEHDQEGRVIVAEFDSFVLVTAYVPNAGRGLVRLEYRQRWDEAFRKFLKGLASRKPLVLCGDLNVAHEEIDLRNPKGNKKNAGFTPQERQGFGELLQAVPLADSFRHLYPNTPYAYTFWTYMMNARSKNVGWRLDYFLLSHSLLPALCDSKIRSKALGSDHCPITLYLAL

Consider `CC(=O)Nc1sc2c(c1-c1nc3ccccc3s1)CCN(C(C)C)C2` [Inhibitor III], for which the “selectivity for APE1 over EndoIV” value on Endonuclease IV turned out to be 3 fold. Also, the values for the concentration for half-maximal inhibition (IC50) on APE1 and on APE1 (listed as APE1 Inhibitor III) were 2000 nM and approximately 2000 nM, respectively.

A word on the IC50: it is the concentration at which inhibition is half-maximal. Higher therefore signals a need for much substance.
